Results on 2 compounds are retold here after US11091486B2, “Process for the preparation of pyrazolo[1,5-a]pyrimidines and salts thereof” (Array BioPharma Inc., priority 2016, dated 2021).

Data set [1] can be described thus: In vitro metabolic stability in human liver microsomes (Example 34). Format: in vitro ADME. As to conditions: 1 μM, predicted hepatic extraction ratio. The procedure: (§1) In vitro metabolic stabilities were studied at a concentration of 1 μM in the presence of liver microsomes and isolated hepatocytes.
(§2) A 100 mM potassium phosphate assay buffer solution (KPB) was prepared as follows. Both KH2PO4 and K2HPO4 were dissolved separately in reagent grade water resulting in final concentrations 100 mM. A 75:25 mixture v/v of K2HPO4:KH2PO4 was prepared and the pH of the solution was adjusted to 7.4 using diluted HCl or diluted NaOH solutions. A stock solution of test compound was prepared at 10 mM (active compound) in DMSO. The stock solution was diluted immediately before use to 2.5 μM using the KPB solution to create the working standard. All test compounds were completely soluble in DMSO by visual inspection at room temperature. […]
(§3) Data were acquired and peak areas were calculated for test compounds and the internal standard using Analyst 1.6.1 software (Sciex). […]
(§4) All calculations were performed using BioAssay Enterprise. The mean peak area ratios were calculated by averaging the peak area ratios (n=2) of test compound and the internal standard for each sample. Percent remaining was calculated by determining the ratio of the peak area ratio at each time point to the peak area ratio of the time-zero samples. The rate of loss of test compound (km) was determined by linear regression of—1n(f(t)) versus time. […] The t½ was determined dividing 1n(2) by km. […]

Data set [2] in a line: Thermodynamic aqueous solubility of a crystalline solid (Example 33). Particulars: aqueous phosphate buffer, thermodynamic from solid, pH 6.5 buffer, 24 hours at room temperature. Format: physicochemical. The procedure: General method to measure the thermodynamic aqueous solubility of a crystalline, organic solid.
To make a 0.03 M (30 mM) Phosphate Buffer (25° C.) at pH 7.4, the above recipe was adjusted as follows: 6.72 mL of 1 M potassium phosphate (monobasic) were mixed with 23.28 mL of 1 M potassium phosphate (dibasic) and diluted to one liter with water. The pH was adjusted with HCl or NaOH. Alternatively, 0.9144 g (6.72×10^−3 mol) of potassium phosphate monobasic were mixed with 4.0908 g (23.28×10^−3 mol) of potassium phosphate dibasic and diluted to 1 L with water to get a 30 mM solution of Phosphate Buffer (25° C.).
2. Aqueous phosphate buffer, 30 mM, adjusted to pH 6.5
1. ˜0.5 mg of compound were dissolved in 2.5% DMSO/MeOH (or other organic) to a final concentration of 250 μg/mL stock
• 1. ≥0.5 mg of compound were accurately weighed into a 4-mL vial for each pH to be tested. • 2. The appropriate amount of desired buffer was added to the appropriate vials to get a resulting concentration of 1.02 mg/mL. • 3. Vials were capped and shaken at 350 rpm for 24 hours at room temperature. • 4. ˜450 μL of sample solutions were pipetted from 4-mL vials into 96 DWP. • 5. The plate was centrifuged at 3500 rpm for 10 minutes at 20° C. and 250 μL of supernatant were transferred to catch plate. • 6. […]
4. The model was used to quantify the amount of compound in the aqueous solutions. […]

In the next data set the target is T1, hERG (Homo sapiens, UniProt Q12809).
T1 construct: Charles River Laboratories International, Inc. (ChanTest assay service)
In words: hERG ChanTest Fast Patch assay. It is filed as cell-based. The procedure: The MDR1 efflux protocol is disclosed in Example 35 hereinbelow. The hERG IC50 values were measured using the ChanTest Fast Patch assay, available from Charles River Laboratories International, Inc. (http://www.criver.com/products-services/drug-discovery/cap abilities/ion-channel/selectivity-profiling).
A general note: Block of hERG is tested as a sign of cardiac risk.

Data set [3] in a line: In vitro metabolic stability in rat liver microsomes (Example 34). Format: in vitro ADME, Sprague Dawley rat. As to conditions: 1 μM, predicted hepatic extraction ratio. On the procedure:
as §1, §2, §3, §4

T1 sequence (Q12809 whole entry): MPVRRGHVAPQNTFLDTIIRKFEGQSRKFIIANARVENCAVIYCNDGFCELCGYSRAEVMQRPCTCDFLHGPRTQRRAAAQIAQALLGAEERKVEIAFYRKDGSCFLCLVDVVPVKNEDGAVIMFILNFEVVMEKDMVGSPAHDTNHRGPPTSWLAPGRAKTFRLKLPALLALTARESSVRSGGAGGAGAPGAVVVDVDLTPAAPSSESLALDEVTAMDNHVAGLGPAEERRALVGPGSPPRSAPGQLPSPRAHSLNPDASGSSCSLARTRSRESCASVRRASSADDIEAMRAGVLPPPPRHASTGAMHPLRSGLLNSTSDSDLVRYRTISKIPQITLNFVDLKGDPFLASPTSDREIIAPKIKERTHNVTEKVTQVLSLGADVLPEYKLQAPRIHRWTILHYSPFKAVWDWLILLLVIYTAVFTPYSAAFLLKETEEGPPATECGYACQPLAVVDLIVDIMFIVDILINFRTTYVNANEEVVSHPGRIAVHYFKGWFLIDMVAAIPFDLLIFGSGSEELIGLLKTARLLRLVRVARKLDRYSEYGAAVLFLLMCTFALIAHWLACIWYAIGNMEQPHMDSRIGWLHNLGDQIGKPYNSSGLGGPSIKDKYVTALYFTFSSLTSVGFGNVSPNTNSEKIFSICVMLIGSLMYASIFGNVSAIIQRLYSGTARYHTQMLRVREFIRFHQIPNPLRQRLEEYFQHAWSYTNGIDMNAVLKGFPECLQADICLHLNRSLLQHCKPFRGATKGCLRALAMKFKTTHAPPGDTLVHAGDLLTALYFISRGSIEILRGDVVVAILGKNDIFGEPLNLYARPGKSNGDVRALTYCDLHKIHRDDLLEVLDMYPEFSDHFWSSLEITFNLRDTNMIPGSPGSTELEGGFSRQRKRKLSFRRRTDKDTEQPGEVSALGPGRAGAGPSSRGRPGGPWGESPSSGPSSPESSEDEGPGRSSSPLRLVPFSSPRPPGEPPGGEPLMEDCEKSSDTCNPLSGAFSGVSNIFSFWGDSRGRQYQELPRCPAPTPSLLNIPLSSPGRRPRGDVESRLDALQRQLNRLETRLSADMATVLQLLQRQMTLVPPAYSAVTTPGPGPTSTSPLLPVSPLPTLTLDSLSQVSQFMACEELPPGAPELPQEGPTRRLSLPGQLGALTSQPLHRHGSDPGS

Consider `C[C@@H]1CCc2ncc(F)cc2[C@H]2CCCN2c2ccn3ncc(c3n2)C(=O)N1` [Formula I], for which the “Human Microsome Clearance (% ER)” value in data set [1] is on record as 79 % ER. Also, the solubility (commonly how much of the substance goes into solution per volume) at 24 h in data set [2] worked out at 111 µg/mL. Also, the IC50 (commonly the concentration that gives 50% inhibition) against hERG was determined as 27 µM. Besides, the “Rat Microsome Clearance (% ER)” value in data set [3] is 51 % ER.

On to `C[C@H]1CCc2ncc(F)cc2[C@H]2CCCN2c2ccn3ncc(c3n2)C(=O)N1` [formula I′], for which the “Human Microsome Clearance (% ER)” value in data set [1] is on record as 92 % ER. In data set [2], this compound registered a solubility at 24 h of 43 µg/mL. On hERG, this compound came in with an IC50 of 9 µM. The “Rat Microsome Clearance (% ER)” value in data set [3] was 77 % ER.
